{
  "source": "patent US8741803B2",
  "about": "“Pesticidal composition and method for controlling pest” (Kumiai Chemical Industry Co., Ltd., priority 2007, dated 2014)",
  "key": {"two-spotted spider mites [1]": {"test_system": "two-spotted spider mites", "experiment": "Test Example 1: miticidal test on two-spotted spider mites (compound 6, flubendiamide and their mixture; soybean seedling dipping, 13 days)", "type": "in vivo, Tetranychus urticae", "settings": "Flubendiamide alone, 50.0 ppm, 25° C.", "procedure": "(§1) Each of the compound 6, flubendiamide, and a mixture of the compound 6 and flubendiamide was formulated into a wettable powder in accordance with Formulation Example 2. The respective formulations were diluted with water to an active ingredient concentration as identified in Table 15, and to the respective solutions, a spreader (KUMITEN manufactured by Kumiai Chemical Industry Co., Ltd.) was added at a concentration of 0.05% of the entire amount. Soybean seedlings which had been inoculated with imago two-spotted spider mites were dipped in each of the resulting solutions and dried in air. The seedlings were placed in a thermostatic chamber at 25° C. for 13 days, and the mite survivors were counted for calculation of the miticidal value by using Equation 2. The test was carried out by one series system. The predictive value in the Table was calculated based on the Colby formula (S. R. Colby (Weeds 15 (1967), 20-22) of Equation 1.\n(§2) [formula] wherein X, Y and E are the following values.\n(§3) X: The miticidal value of the component A at a predetermined concentration.\n(§4) Y: The miticidal value of the component B at a predetermined concentration.\nE: Predictive value (theoretical expected value) of the component A and the component B in combination at the respective predetermined concentrations. […]"}, "two-spotted spider mites [2]": {"test_system": "two-spotted spider mites", "experiment": "Test Example 2: miticidal test on two-spotted spider mites (compound 6, tebufenozide and their mixture; soybean seedling dipping, 13 days)", "type": "in vivo, Tetranychus urticae", "settings": "Tebufenozide alone, 100.0 ppm, 25° C.", "source_text": "as §2, §3, §4\nE: Predictive value (theoretical expected value) of the component A and the component B in combination at the respective predetermined concentrations.\n(§5) When the practical miticidal value of the insecticide exceeds E (predictive value), a synergistic effect is obtained.\nas §1, with “tebufenozide,” for “flubendiamide,”, “tebufenozide” for “flubendiamide”, “16,” for “15,”, “theoretical” for “predictive”, “formula” for “formula (S. R. Colby (Weeds 15 (1967), 20-22)”"}, "cotton aphid": {"test_system": "cotton aphid", "experiment": "Test Example 3: insecticidal test on cotton aphid (compound 6, pyridalyl and their mixture; root zone irrigation of cucumber seedlings, 3 days)", "type": "in vivo, Aphis qossypii", "settings": "Pyridalyl alone, 100.0 ppm, 25° C.", "procedure": "as §2, §5\nEach of the compound 6, pyridalyl, and a mixture of the compound 6 and pyridalyl was formulated into a wettable powder in accordance with Formulation Example 2. The respective formulations were diluted with water to an active ingredient concentration as identified in Table 17, and to the respective solutions, a spreader (KUMITEN manufactured by Kumiai Chemical Industry Co., Ltd.) was added at a concentration of 0.05% of the entire amount. The root zone of cucumber seedlings which had been inoculated with larvae of cotton aphid were irrigated with 5 mL of each of the solutions. The treated seedlings were placed in a thermostatic chamber at 25° C. for 3 days, and the survivors were counted for calculation of the insecticidal degree by Equation 3. The test was carried out by two series system. The predictive value in the Table was calculated based on the Colby formula of Equation 1."}},
  "data": [
    {"smiles": "Cc1cc(C(F)(C(F)(F)F)C(F)(F)F)ccc1NC(=O)c1cccc(I)c1C(=O)NC(C)(C)CS(C)(=O)=O", "note": "[flubendiamide]", "values": [
      {"measurement": "Miticidal value", "setting": "two-spotted spider mites [1]", "value": 13}
    ]},
    {"smiles": "CCc1ccc(C(=O)NN(C(=O)c2cc(C)cc(C)c2)C(C)(C)C)cc1", "note": "[tebufenozide]", "values": [
      {"measurement": "Miticidal value", "setting": "two-spotted spider mites [2]", "value": 3}
    ]},
    {"smiles": "FC(F)(F)c1ccc(OCCCOc2c(Cl)cc(OCC=C(Cl)Cl)cc2Cl)nc1", "note": "[pyridalyl]", "values": [
      {"measurement": "Insecticidal degree", "setting": "cotton aphid", "value": 10}
    ]}
  ]
}
